Where two headings read alike, the source gives them in different places.
Assays:
[1] = Bioavailability study: single-dose plasma pharmacokinetics of 2 test formulations of triple combination capsules
Source text: The objectives of this study were to 1) determine and compare the rate and extent of absorption and 2) to assess the safety and tolerability of 2 test formulations of a combination product of clarithromycin, rifabutin and clofazimine (herein after “triple combination”).
This study followed a randomized, open-label, single-dose, 1-way 2-arm parallel design in 24 normal, healthy, non-smoking male and female subjects.
Subjects were admitted to the clinic the day before dosing, and remained until the 24.00 hour post-dose blood draw, at which time they were allowed to leave the clinic and after which they were required to return for subsequent blood draws.
Following an overnight fast of at least 10 hours, subjects began a high fat content meal 30 minutes prior to drug administration. Subjects consumed this meal in 30 minutes or less; however, the study drug was administered 30 minutes after the start of the meal. The FDA standard high-fat content breakfast consisted of the following: 2 eggs fried in butter, 2 strips of bacon, 2 slices of toast with butter, 4 ounces of hash brown potatoes and 8 fluid ounces (about.240 mL) of whole milk.
Following an overnight fast of at least 10 hours, and 30 minutes after the start of a high fat content meal, subjects received one of the following treatments at 0.00 hour on Day 1 of the study period according to a randomization scheme:
The medications were administered orally. The drugs were given 1 or more capsules at a time. All capsules were ingested within 1 minute.
During the study period, 19 blood samples (1×4 mL and 1×6 mL tube for each sampling time point) were collected from each subject by direct venipuncture or by Vasofix® intravenous catheter using pre-cooled, labelled blood collection tubes containing potassium ethylenediaminetetraacetic acid (EDTA) as the anticoagulant. Blood samples were collected at 0.00 (pre-dose), 0.25, 0.50, 0.75, 1.00, 1.50, 2.00, 2.50, 3.00, 4.00, 6.00, 8.00, 10.00, 12.00, 16.00, 24.00, 48.00, 60.00, and 96.00 hours post-dose. The clock times of all blood draws for plasma concentration analyses were recorded.
The 6 mL tubes were used to measure clarithromycin and 14-hydroxyclarithromycin. The 4 mL tubes were used to measure rifabutin, 25-O-desacetylrifabutin and clofazimine.
(§1) The blood samples were stored in an ice bath before centrifugation and were centrifuged as soon as possible under refrigerated conditions (at 4° C.) at 3500 rpm for 7 minutes. The collected plasma from each blood collection tube was aliquotted into pre-cooled labelled polypropylene tubes. A minimum of 1.5 mL of plasma was transferred from the 6 mL tubes into the first polypropylene tube, and all remaining plasma, if any, was transferred into a second polypropylene tube. The samples were kept in an ice bath, and flash frozen in an upright position, then stored at −70±10° C. until assayed.
as §1, with “In another procedure, the blood” for “The blood”, “of 0.8” for “of 1.5”, “the 4 mL,” for “the 6 mL”
Upon completion of the clinical portion of the study, all samples were analysed for clarithromycin and 14-hydroxyclarithromycin in the plasma samples or for rifabutin, 25-O-desacetylrifabutin and clofazimine in the plasma samples.
Clarithromycin and 14-hydroxyclarithromycin—Information about these analytes was obtained using routine methods known in the art.

[2] = Literature Cmax of clarithromycin (Chu et al., 1993); conditions: in vivo; clarithromycin 190 mg dose; read-out: Cmax, literature value scaled to dose of the study
Procedure: The results obtained from dry and PEG formulations of triple combination capsules were approximately proportional to literature findings. Chu et al. (1993) reported that the rise of clarithromycin peak concentrations occur non-linearly to dose which might explain any slight disproportionality between the literature values and those obtained from triple combination capsules dry and PEG formulations.
Clarithromycin—500 mg (four 125-mg capsules, Abbott Laboratories) every 12 hours for 5 doses.

[3] = single dose of 250 mg of clarithromycin; cited from earlier work
[4] = Literature Cmax of clofazimine (Nix et al., 2004); conditions: in vivo; clofazimine 20 mg dose; read-out: Cmax, literature value scaled to dose of the study
[5] = clofazimine 200 mg dose, fed (Nix et al., 2004); cited from earlier work
[6] = single 300 mg dose of rifabutin, fasting; 10 HIV patients without wasting syndrome (Gatti et al., 1998); cited from earlier work
[7] = clinical; conditions: human, in vivo, 90 mg
Source text: Gatti et al. (1998) conducted a comparative study of rifabutin absorption and disposition in HIV-infected patients with or without wasting syndrome.

[8] = clarithromycin, geometric mean ratio dry/PEG formulation of triple combination capsules
[9] = clofazimine, geometric mean ratio dry/PEG formulation of triple combination capsules
[10] = rifabutin, geometric mean ratio dry/PEG formulation of triple combination capsules
[11] = 25-O-desacetylrifabutin, geometric mean ratio dry/PEG formulation of triple combination capsules

## CC[C@H]1OC(=O)[C@H](C)[C@@H](O[C@H]2C[C@@](C)(OC)[C@@H](O)[C@H](C)O2)[C@H](C)[C@@H](O[C@@H]2O[C@H](C)C[C@H](N(C)C)[C@H]2O)[C@](C)(OC)C[C@@H](C)C(=O)[C@H](C)[C@@H](O)[C@]1(C)O [CLARITHROMYCIN, clarithromycin]
[1]; [8]
  Relative bioavailability, Ratio of Means, AUC0-inf: 80.78%
  Relative bioavailability, Ratio of Means, AUC0-t: 80.34%
  Relative bioavailability, Ratio of Means, Cmax: 75.03%
[2]
  Cmax: 593 ng/mL
[3]
  Cmax: 780 ± 250 ng/mL

## CC(C)/N=c1\cc2n(-c3ccc(Cl)cc3)c3ccccc3nc-2cc1Nc1ccc(Cl)cc1 [CLOFAZIMINE, clofazimine]
[4]
  Cmax: 23 ng/mL
[1]; [9]
  Relative bioavailability, Ratio of Means, AUC0-t: 102.38%
  Relative bioavailability, Ratio of Means, Cmax: 118.63%
[1]; clofazimine, geometric mean ratio dry/PEG formulation of triple combination capsules, listed as clofazimine
  Relative bioavailability, Ratio of Means, AUC0-t: 102%
[1]; clofazimine, geometric mean ratio dry/PEG formulation, approximately 50% (A) and 75% (B) of subjects excluded
  Relative bioavailability, Ratio of Means, AUC0-inf: 120.52%
[5]
  Cmax: 227 ng/mL

## CO[C@H]1/C=C/O[C@@]2(C)Oc3c(C)c(O)c4c(c3C2=O)C2=NC3(CCN(CC(C)C)CC3)NC2=C(NC(=O)/C(C)=C\C=C\[C@H](C)[C@H](O)[C@@H](C)[C@@H](O)[C@@H](C)[C@H](OC(C)=O)[C@@H]1C)C4=O [RIFABUTIN, rifabutin]
[6]
  Cmax (peak concentration): 340 ± 140 ng/mL
[7]
  Cmax: 102 ng/mL
[1]; [10]
  Relative bioavailability, Ratio of Means, AUC0-inf: 73.23%
  Relative bioavailability, Ratio of Means, AUC0-t: 77.00%
  Relative bioavailability, Ratio of Means, Cmax: 88.74%

## 25-O-desacetylrifabutin [25-0-DESACETYLRIFABUTIN]
[1]; [11]
  Relative bioavailability, Ratio of Means, AUC0-t: 73.95%
  Relative bioavailability, Ratio of Means, Cmax: 73.43%
[1]; 25-O-desacetylrifabutin, geometric mean ratio dry/PEG formulation, approximately 65% of subjects excluded
  Relative bioavailability, Ratio of Means, AUC0-inf: 86.06%
